Source: patent US11305021B2, “Membrane-lytic block copolymers” (UNIVERSITY OF WASHINGTON, priority 2016, dated 2022)
“Also recorded” adds a separate entry of the source.

Tests used:
human red blood cells = experiment: Hemolysis assay (acid-triggered membrane-lytic activity); format: cell-based
Description: Hemolysis assay was used to evaluate the acid-triggered membrane-lytic activity of the synthesized materials at pH 7.4 (extracellular pH) and 5.7 (endosomal pH). Briefly, plasma from human blood was removed by centrifugation. The red blood cells were washed three times with 150 mM NaCl, and resuspended into phosphate buffer (PB) at pH 7.4 or 5.7. The polymers at various concentrations ([…]) and 1% Triton X-100 as control, were added to the RBC suspensions in a 96-well conical plate and was allowed to incubate for 1 h at 37° C. After centrifugation, the released hemoglobin within the supernatant was measured by UV at 541 nm. Percent hemolysis was calculated relative to Triton X-100. Experiments were performed in triplicate.

[1] = tested on: HeLa, KB, A549 and Z310 cells; experiment: GFP transfection; format: cell-based; details: GFP plasmid
Description: The transfection with GFP (green fluorescence plasmid) on different cell lines was the same as that with luciferase plasmid. For analysis, cells were washed with PBS, trypsinized and pelleted at 300×g for 5 min at 4° C. The pellet was resuspended in 0.3 mL propidium iodide (PI) solution (1 μg/mL in 0.5% BSA in PBS), kept on ice and analyzed using flow cytometry, MACSQuant Analyzer (Miltenyi Biotec Inc., Auburn, Calif.). Intact cells were identified using the forward and side scatter data. The resulting cell population was gated into GFP+/PI+, GFP+/PI−, GFP−/PI+ and GFP−/PI− based on the green fluorescence and PI intensity from the control samples (cells transfected without the polymers but DNA only) and reported as the mean percentage of cell population that is GFP+/PI− including standard deviation (SD). All experiments were conducted in triplicate.

[2] = Assembly behavior of VIPER by TEM imaging and DLS analysis; format: physicochemical
Text: To verify this hypothesized mechanism, the assembly behavior of VIPER at pH 7.4 and pH 5.7 was monitored by both transmission electron microscopy (TEM) imaging and dynamic light scattering (DLS) analysis. VIPER assembles into uniform spherical nanoparticles with diameter around 30 nm at pH 7.4 (FIGS. 2A and C for TEM and DLS, respectively).
The morphology of polymers and polyplexes under dried state were imaged on a JEOL 1140 TEM at an acceleration voltage of 100 kV. In order to observe the morphology of polymer assemblies under different pHs, the polymer solutions (1 mg/mL, in distilled water) were diluted with PB to pH 7.4 and 5.7. Then the resulting solutions (10 μL) were deposited on the top of the 400-mesh formvar/copper grids and incubated at room temperature for 30 min. After staining with uranyl acetate, the grids were allowed to air dry overnight. The preparation of polyplexes samples were the same as polymer samples.

[3] = tested on: HeLa, KB, A549 and Z310 cells; experiment: In vitro transfection with luciferase plasmid; format: cell-based
Description: HeLa, KB, Z310 and A549 cells were seeded at a density of 25,000 cells/well in complete cell culture medium in a 24-well plate. Cells were firstly incubated at 37° C., 5% CO2 for 24 h. Polyplexes were prepared at different N/P ratios using 0.5 μg of pCMV-Luc2 pDNA in 10 μL total volume. Each sample was diluted to 200 μL with complete cell culture medium. The cells were rinsed once with PBS, followed by the addition of transfection solution. After incubation for 4 h, cells were washed with PBS twice and the polyplexes solution was replaced with complete cell culture medium. After additional 20 h incubation, luciferase activity was quantified with a luciferase assay kit (Promega Corp, Fitchburg, Wis.) according to the manufacturer's instruction, except that a freeze-thaw cycle at −80 OC was included after the addition of the lysis buffer to ensure complete cell lysis. Luminescence intensity was measured on the plate reader with integration for 1 s. The total protein content in each well was measured by a BCA Protein Assay Kit (Thermo Scientific, Rockford, Ill.) according to the manufacturer's instruction so that the luciferase activity was normalized to the total protein content in each well. Each sample was tested with a sample size (n)=3. The N/P ratio used for bPEI is 5, which was previous determined to show optimized transfection efficiency. […]

P(OEGMA11-DMAEMA56)-b-p(DIPAMA33-PDSEMA-g-melittin)1) [VIPER]
concentration for 50% lysis (human red blood cells; pH 5.7): 30 µg/mL | concentration for complete lysis (human red blood cells; pH 5.7): 120 µg/mL | cell lysis (human red blood cells; pH 7.4, VIPER concentrations as high as 240 μg/mL): no significant cell lysis; also recorded: minimal membrane-lytic activity | fold more transfected cells compared to CP [1]: 13- to 60 fold | fold more transfected cells compared to bPEI [1]: 11- to 46 fold | transfection efficiency, GFP+ cells ([1]; range over cell lines): 36-77% | assemblies observed ([2]; pH 5.7): no assemblies were observed | diameter of nanoparticles ([2]; pH 7.4): around 30 nm | transfection efficiency compared to optimized LF formulations ([3]; HeLa, KB and Z310 cells): improved transfection efficiency | luciferase activity compared to CP and bPEI ([3]; all tested cell lines): orders of magnitude higher
